Measured values from paper PMC4954967, “Identification of a diazinon-metabolizing glutathione S-transferase in the silkworm, Bombyx mori” (Scientific Reports, 2016).
Substitutions are numbered along the chain they refer to.

Experiments:
Test in all cases: spectrophotometric GST assay at […] nm, nonlinear least-squares fit
Assay type in all cases: biochemical
bmGSTu2 [1] = biological target: T1, bmGSTu2 (Bombyx mori, UniProt A9XI30, S67A); settings: read-out: S67A; 5 mM GSH; value (SD), n = 3
T1 construct: full length, 233 residues, 26,667 Da calculated; cDNA from fat body; pET-22b (EcoRI/XhoI, reverse primer without stop codon), E. coli Rosetta (DE3) pLysS
T1 sequence (A9XI30 1-233 S67A): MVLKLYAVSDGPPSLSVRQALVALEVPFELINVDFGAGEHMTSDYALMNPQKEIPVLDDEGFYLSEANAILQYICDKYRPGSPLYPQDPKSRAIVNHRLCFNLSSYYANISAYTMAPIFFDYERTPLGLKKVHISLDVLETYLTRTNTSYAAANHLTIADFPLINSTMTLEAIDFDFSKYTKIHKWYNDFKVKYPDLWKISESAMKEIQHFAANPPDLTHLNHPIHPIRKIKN

bmGSTu2 [2] = biological target: T2, bmGSTu2 (Bombyx mori, UniProt A9XI30, I54A); settings: read-out: I54A; 5 mM GSH; value (SD), n = 3
T2 construct: full length, 233 residues, 26,667 Da calculated; cDNA from fat body; pET-22b (EcoRI/XhoI, reverse primer without stop codon), E. coli Rosetta (DE3) pLysS
T2 sequence (A9XI30 1-233 I54A): T1 sequence (A9XI30 1-233 S67A) with I54A, A67S

bmGSTu2 [3] = biological target: T3, bmGSTu2 (Bombyx mori, UniProt A9XI30, E66A); settings: read-out: E66A; 5 mM GSH; value (SD), n = 3
T3 construct: full length, 233 residues, 26,667 Da calculated; cDNA from fat body; pET-22b (EcoRI/XhoI, reverse primer without stop codon), E. coli Rosetta (DE3) pLysS
T3 sequence (A9XI30 1-233 E66A): T1 sequence (A9XI30 1-233 S67A) with E66A, A67S

bmGSTu2 [4] = biological target: T4, bmGSTu2 (Bombyx mori, UniProt A9XI30); settings: read-out: Wild-type; 5 mM GSH; value (SD), n = 3
T4 construct: full length, 233 residues, 26,667 Da calculated; cDNA from fat body; pET-22b (EcoRI/XhoI, reverse primer without stop codon), E. coli Rosetta (DE3) pLysS
T4 sequence (A9XI30 1-233): T1 sequence (A9XI30 1-233 S67A) with A67S

bmGSTu2 [5] = biological target: T5, bmGSTu2 (Bombyx mori, UniProt A9XI30, N68A); settings: read-out: N68A; 5 mM GSH; value (SD), n = 3
T5 construct: full length, 233 residues, 26,667 Da calculated; cDNA from fat body; pET-22b (EcoRI/XhoI, reverse primer without stop codon), E. coli Rosetta (DE3) pLysS
T5 sequence (A9XI30 1-233 N68A): T1 sequence (A9XI30 1-233 S67A) with A67S, N68A

Work on `O=[N+]([O-])c1ccc(Cl)c([N+](=O)[O-])c1` [CDNB] yielded a Km (bmGSTu2 [1]) of 1.6 mM, a Km (bmGSTu2 [2]) of 2.5 mM and a Km (bmGSTu2 [3]) of 910 µM. For the same compound, the Km (bmGSTu2 [4]) was 270 µM and the Km (bmGSTu2 [5]) was 530 µM.
